The nature of test [1]: Effect on the activity of prolyl endopeptidase (PEP) was evaluated at the IC50 concentration for DPP IV and.
Test [2] can be described thus: Effect on the activity of prolyl endopeptidase (PEP) was evaluated at 1 mM concentration for DPP IV.

What is called IC50 is the midpoint of a concentration-inhibition curve. Low values mean greater potency, high ones weaker potency. On to `CC(=O)Nc1cccc(OP(=O)(Oc2cccc(NC(C)=O)c2)C2CCCN2C(=O)C2CCCN2)c1` (configuration not stated) [2-{2-[Bis-(3-acetylamino-phenoxy)-phosphoryl]-pyrrolidine-1-carbonyl}-pyrrolidinium; chloride], for which the IC50 worked out at 89 µM in test [1] and 50 µM in test [2].

Values taken from BindingDB's records for doi:10.1021/jm981033g (University of Antwerp (Uia), 1999).
